# PubChem BioAssay AID330 (DTP/NCI, 2004)
# Several values for one entry are separate records, joined by “and”; a condition that tells them apart may be missing. Equal entries are not always repeated. Inconclusive results and toxic doses are left out.
# System: P388 leukemia ip, CD2F1 mice, survival T/C
# Assay: NCI In Vivo Anticancer Drug Screen. Data for tumor model P388 Leukemia (intraperitoneal) in CD2F1 (CDF1) mice
# Settings: endpoint: median survival time, higher = longer survival
# Method in brief: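 Mice carrying the transplanted tumor received test compound or vehicle. Survival was recorded in each group, and the value is the treated-group measurement divided by that of the vehicle-treated control group.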
# [1] = dose: 50.0 mg/kg/injection, schedule: Q01DX009 (ip), vehicle: Klucel (hydroxypropylcellulose) (HPC)
# [2] = dose: 100.0 mg/kg/injection, schedule: Q01DX009 (ip), vehicle: Klucel (hydroxypropylcellulose) (HPC)
# [3] = dose: 200.0 mg/kg/injection, schedule: Q01DX009 (ip), vehicle: Klucel (hydroxypropylcellulose) (HPC)
# [4] = dose: 50.0 mg/kg/injection, schedule: Q01DX009 (ip), vehicle: saline with Tween-80
# [5] = dose: 100.0 mg/kg/injection, schedule: Q01DX009 (ip), vehicle: saline with Tween-80
# [6] = dose: 200.0 mg/kg/injection, schedule: Q01DX009 (ip), vehicle: saline with Tween-80
# [7] = dose: 25.0 mg/kg/injection, schedule: Q01DX009 (ip), vehicle: saline with Tween-80
structure (smiles),measurement,setting,value
COc1ccc(C(=O)N2CC(OC(C)=O)=CC2=O)cc1,T/C,[1],107 % of control
same,T/C,[2],110 % of control
same,T/C,[3],106 % of control
CC(C)Sc1nc2ccc(NC(=O)/C=C/C(=O)O)cc2s1,T/C,[1],100 % of control
same,T/C,[2],104 % of control
same,T/C,[3],101 % of control
CCNCCn1cccc1,T/C,"dose: 50.0 mg/kg/injection, schedule: Q04DX003 (ip), vehicle: saline",91 % of control
same,T/C,"dose: 100.0 mg/kg/injection, schedule: Q04DX003 (ip), vehicle: saline",95 % of control
same,T/C,"dose: 200.0 mg/kg/injection, schedule: Q04DX003 (ip), vehicle: saline",95 % of control
O=P(O)(O)SP(=O)(O)O.[Zn+2],T/C,"dose: 100.0 mg/kg/injection, schedule: Q04DX003 (ip), vehicle: Klucel (hydroxypropylcellulose) (HPC)",101 % of control
same,T/C,"dose: 200.0 mg/kg/injection, schedule: Q04DX003 (ip), vehicle: Klucel (hydroxypropylcellulose) (HPC)",105 % of control
CSc1nc(-c2ccccc2)c(C(=O)NC(C)CN2CCCCC2)s1 (stereo unspecified),T/C,"dose: 60.0 mg/kg/injection, schedule: Q01DX005 (ip), vehicle: saline with Tween-80",95 % of control
same,T/C,"dose: 120.0 mg/kg/injection, schedule: Q01DX005 (ip), vehicle: saline with Tween-80",100 % of control
CCCCCCCc1cc(=O)[nH]c(=S)[nH]1,T/C,"dose: 60.0 mg/kg/injection, schedule: Q01DX005 (ip), vehicle: Klucel (hydroxypropylcellulose) (HPC)",96 % of control
same,T/C,"dose: 120.0 mg/kg/injection, schedule: Q01DX005 (ip), vehicle: Klucel (hydroxypropylcellulose) (HPC)",95 % of control
same,T/C,"dose: 240.0 mg/kg/injection, schedule: Q01DX005 (ip), vehicle: Klucel (hydroxypropylcellulose) (HPC)",89 % of control
N.N.O=C([O-])/C=C\C(=O)[O-].[Pt],T/C,"dose: 4.38 mg/kg/injection, schedule: Q04DX002 (ip), vehicle: saline with Tween-80",117 % of control
Cc1ccc(S(=O)(=O)NCc2cccc(CNS(=O)(=O)c3ccc(C)cc3)c2)cc1,T/C,[4],104 % of control
same,T/C,[5],89 % of control
same,T/C,[6],100 % of control
CCCCNCCC(SS)c1ccc(Cl)cc1 (stereo unspecified),T/C,[7],110 % of control
same,T/C,[4],100 % of control
same,T/C,[5],100 % of control
CCCn1c(C)nc2cc(C)cc(N)c21,T/C,"dose: 12.5 mg/kg/injection, schedule: Q01DX005 (ip), vehicle: saline with Tween-80",100 % of control
same,T/C,"dose: 25.0 mg/kg/injection, schedule: Q01DX005 (ip), vehicle: saline with Tween-80",89 % of control
same,T/C,"dose: 50.0 mg/kg/injection, schedule: Q01DX005 (ip), vehicle: saline with Tween-80",90 % of control and 94 % of control
C=C1C(=O)O[C@@H]2C[C@@]3(C)CCC[C@H](C)C3=C[C@H]12,T/C,[7],94 % of control
same,T/C,[4],98 % of control
same,T/C,[5],100 % of control
same,T/C,[6],100 % of control
Cc1cc2ncn(CC(=O)O)c2cc1C,T/C,"dose: 50.0 mg/kg/injection, schedule: Q04DX003 (ip), vehicle: saline with Tween-80",100 % of control
same,T/C,"dose: 100.0 mg/kg/injection, schedule: Q04DX003 (ip), vehicle: saline with Tween-80",90 % of control
COc1ccc2oc(N(C)c3ccccc3)c(C3OC4OC(C)(C)OC4C3OC)c(=O)c2c1 (stereo unspecified),T/C,"dose: 25.0 mg/kg/injection, schedule: Q01DX001 (ip), vehicle: Klucel (hydroxypropylcellulose) (HPC)",97 % of control
same,T/C,"dose: 50.0 mg/kg/injection, schedule: Q01DX001 (ip), vehicle: Klucel (hydroxypropylcellulose) (HPC)",105 % of control
same,T/C,"dose: 100.0 mg/kg/injection, schedule: Q01DX001 (ip), vehicle: Klucel (hydroxypropylcellulose) (HPC)",109 % of control
O=C(O)CCNC(Cc1ccc(O)cc1)C(=O)O (stereo unspecified),T/C,"dose: 50.0 mg/kg/injection, schedule: Q01DX005 (ip), vehicle: Klucel (hydroxypropylcellulose) (HPC)",96 % of control
same,T/C,"dose: 100.0 mg/kg/injection, schedule: Q01DX005 (ip), vehicle: Klucel (hydroxypropylcellulose) (HPC)",102 % of control
same,T/C,"dose: 200.0 mg/kg/injection, schedule: Q01DX005 (ip), vehicle: Klucel (hydroxypropylcellulose) (HPC)",103 % of control
Cn1ccccc1=NCC(N)=O,T/C,"dose: 100.0 mg/kg/injection, schedule: Q04DX002 (ip), vehicle: saline",99 % of control
same,T/C,"dose: 200.0 mg/kg/injection, schedule: Q04DX002 (ip), vehicle: saline",104 % of control
same,T/C,"dose: 400.0 mg/kg/injection, schedule: Q04DX002 (ip), vehicle: saline",102 % of control
